According to ChEMBL document CHEMBL4359836, “Synthesis and Biological Assessment of Pyrrolobenzoxazine Scaffold as a Potent Antioxidant” (J Med Chem, 2019):
Activity calls are given as the source filed them. The rule behind the calls is not given here.

Key:
[1] = Effect on ICDH levels in goat cardiac mitochondria at 8.25 to 66 uM using isocitrate as substrate after 1 hr; type: ADME, subcellular, Capra hircus, Heart, Mitochrondria
[2] = system: Mitochondria; test: Antioxidant activity in goat cardiac mitochondria assessed as inhibition of CuCl2/ascorbic acid-induced protein carbonyl content at 8.25 uM after 1 hr by DNPH assay relative to control; type: functional, subcellular; settings: Capra hircus, Heart, Mitochrondria
[3] = system: Mitochondria; test: Protective activity against CuCl2/ascorbic acid-induced apoptotic alteration in goat cardiac mitochondria assessed as reversal of CuCl2/ascorbic acid-induced reduction in cytochrome c oxidase activity at 66 uM measured at 10 secs time interval for 90 secs by spectrophotometric analysis relative to control; type: functional, subcellular; settings: Capra hircus, Heart, Mitochrondria
[4] = system: Mitochondria; test: Antioxidant activity in goat cardiac mitochondria assessed as reversal of CuCl2/ascorbic acid-induced reduction in PDH level at 8.25 uM using sodium pyruvate as substrate after 1 hr by spectrophotometric analysis (reference value: 66.25%); type: functional, subcellular; set-up: scale not given: the % may be the effect or the level left; settings: Capra hircus, Heart, Mitochrondria
[5] = system: Mitochondria; test: Antioxidant activity in goat cardiac mitochondria assessed as reversal of CuCl2/ascorbic acid-induced reduction in ICDH level at 33 uM using isocitrate as substrate after 1 hr relative to control; type: functional, subcellular; settings: Capra hircus, Heart, Mitochrondria
[6] = system: Mitochondria; test: Antioxidant activity in goat cardiac mitochondria assessed as reversal of CuCl2/ascorbic acid-induced reduction in ICDH level at 66 uM using isocitrate as substrate after 1 hr relative to control; type: functional, subcellular; settings: Capra hircus, Heart, Mitochrondria
[7] = Effect on cytochrome c oxidoreductase activity in goat cardiac mitochondria at 8.25 to 66 uM incubated for 1 hr and measured at 10 secs time interval for 90 secs by spectrophotometric analysis; type: ADME, subcellular, Capra hircus, Heart, Mitochrondria
[8] = system: Mitochondria; test: Antioxidant activity in goat cardiac mitochondria assessed as reversal of CuCl2/ascorbic acid-induced reduction in GSH level at 8.25 uM after 1 hr by DTNB reagent based method (reference value: 75.89%); type: functional, subcellular; set-up: scale not given: the % may be the effect or the level left; settings: Capra hircus, Heart, Mitochrondria
[9] = system: Mitochondria; test: Antioxidant activity in goat cardiac mitochondria assessed as reversal of CuCl2/ascorbic acid-induced reduction in GSH level at 16.5 uM after 1 hr by DTNB reagent based method relative to control; type: functional, subcellular; settings: Capra hircus, Heart, Mitochrondria
[10] = species on record: Capra hircus; test: Effect on alpha-ketoglutarate dehydrogenase in goat cardiac mitochondria assessed as reversal of CuCl2/ascorbic acid induced reduction in Km at 66 uM using alpha-ketoglutarate as substrate after 1 hr by Lineweaver-Burk double reciprocal plot analysis; settings: Heart
[11] = Effect on SDH levels in goat cardiac mitochondria at 8.25 to 66 uM using succinate as substrate after 1 hr by spectrophotometric analysis; type: ADME, subcellular, Capra hircus, Heart, Mitochrondria
[12] = Inhibition of succinate dehydrogenase in goat cardiac mitochondria assessed as effect on Vmax at 66 uM using succinate as substrate after 1 hr by Lineweaver-Burk double reciprocal plot analysis; set-up: species or system Capra hircus, Heart
[13] = system: Mitochondria; test: Protective activity against CuCl2/ascorbic acid-induced oxidative damage in goat cardiac mitochondria assessed as reversal of CuCl2/ascorbic acid-induced reduction in fluorescence intensity at 66 uM after 1 hr by Janus green-B staining based confocal microscopic method relative to control; type: functional, subcellular; settings: Capra hircus, Heart, Mitochrondria
[14] = species on record: Capra hircus; test: Effect on PDH in goat cardiac mitochondria assessed as reversal of CuCl2/ascorbic acid induced reduction in Km at 66 uM using sodium pyruvate as substrate after 1 hr by Lineweaver-Burk double reciprocal plot analysis; settings: Heart
[15] = system: Mitochondria; test: Antioxidant activity in goat cardiac mitochondria assessed as inhibition of CuCl2/ascorbic acid-induced protein carbonyl content at 33 uM after 1 hr by DNPH assay relative to control; type: functional, subcellular; settings: Capra hircus, Heart, Mitochrondria
[16] = species on record: Capra hircus; test: Effect on ICDH in goat cardiac mitochondria assessed as reversal of CuCl2/ascorbic acid induced reduction in Km at 66 uM using isocitrate as substrate after 1 hr by Lineweaver-Burk double reciprocal plot analysis; settings: Heart
[17] = system: Mitochondria; test: Antioxidant activity in goat cardiac mitochondria assessed as reversal of CuCl2/ascorbic acid-induced reduction in GSH level at 33 uM after 1 hr by DTNB reagent based method relative to control; type: functional, subcellular; settings: Capra hircus, Heart, Mitochrondria
[18] = Inhibition of alpha-ketoglutarate dehydrogenase in goat cardiac mitochondria assessed as effect on Vmax at 66 uM using alpha-ketoglutarate as substrate after 1 hr by Lineweaver-Burk double reciprocal plot analysis; set-up: species or system Capra hircus, Heart
[19] = Antioxidant activity in pH 10 Tris-HCl buffer assessed as superoxide anion radical scavenging activity by measuring rate of epinephrine auto-oxidation by spectrophotometric analysis; type: functional
[20] = system: Mitochondria; test: Antioxidant activity in goat cardiac mitochondria assessed as inhibition of CuCl2/ascorbic acid-induced manganese superoxide dismutase after 1 hr by pyrogallol autoxidation method; type: functional, subcellular; settings: Capra hircus; Heart; Mitochrondria
[21] = species on record: Capra hircus; test: Effect on alpha-ketoglutarate dehydrogenase in goat cardiac mitochondria assessed as reversal of CuCl2/ascorbic acid induced reduction in Vmax at 66 uM using alpha-ketoglutarate as substrate by Lineweaver-Burk double reciprocal plot analysis; settings: Heart
[22] = system: Mitochondria; test: Antioxidant activity in goat cardiac mitochondria assessed as reversal of CuCl2/ascorbic acid-induced reduction in GSH level after 1 hr by DTNB reagent based method; type: functional, subcellular; settings: Capra hircus; Heart; Mitochrondria
[23] = Inhibition of ICDH in goat cardiac mitochondria assessed as effect on Vmax at 66 uM using isocitrate as substrate after 1 hr by Lineweaver-Burk double reciprocal plot analysis; set-up: species or system Capra hircus, Heart
[24] = Binding affinity to Cu2+/ascorbate assessed as decrease in heat change at 66 uM in presence of ascorbic acid/CuCl2 by isothermal titration calorimetry
[25] = Effect on GSH level in goat cardiac mitochondria at 8.25 to 66 uM after 1 hr by DTNB reagent based method; type: ADME, subcellular, Capra hircus, Heart, Mitochrondria
[26] = Binding affinity to Cu2+ assessed as binding constant K1 at 66 uM in presence of CuCl2 by isothermal titration calorimetry
[27] = Binding affinity to ascorbate assessed as decrease in heat change at 66 uM in presence of ascorbic acid by isothermal titration calorimetry
[28] = Induction of structural distortion in goat cardiac mitochondria at 66 uM after 1 hr by scanning electron microscopy; type: subcellular, Capra hircus, Heart, Mitochrondria
[29] = Antioxidant activity in pH 7.4 phosphate buffer assessed as H2O2 scavenging activity by measuring H2O2 decomposition at 1.34 to 10.72 uM by spectrophotometric analysis; type: functional
[30] = species on record: Capra hircus; test: Effect on succinate dehydrogenase in goat cardiac mitochondria assessed as reversal of CuCl2/ascorbic acid induced reduction in Vmax at 66 uM using succinate as substrate after 1 hr by Lineweaver-Burk double reciprocal plot analysis; settings: Heart
[31] = system: Mitochondria; test: (§1) Protective activity against CuCl2/ascorbic acid-induced apoptotic alteration in goat cardiac mitochondria assessed as reversal of CuCl2/ascorbic acid-induced reduction in cytochrome c oxidase activity incubated for 1 hr and measured at 10 secs time interval for 90 secs by spectrophotometric analysis; type: functional, subcellular; settings: Capra hircus; Heart; Mitochrondria
[32] = system: Mitochondria; test: Antioxidant activity in goat cardiac mitochondria assessed as inhibition of CuCl2/ascorbic acid-induced lipid peroxidation at 16.5 uM after 1 hr by thiobarbituric acid based UV-Visible spectrophotometric method (reference value: 60.11%); type: functional, subcellular; settings: Capra hircus, Heart, Mitochrondria
[33] = system: Mitochondria; test: Antioxidant activity in goat cardiac mitochondria assessed as inhibition of CuCl2/ascorbic acid-induced protein carbonyl content at 16.5 uM after 1 hr by DNPH assay relative to control; type: functional, subcellular; settings: Capra hircus, Heart, Mitochrondria
[34] = Antioxidant activity in pH 7.4 phosphate buffer assessed as DPPH radical scavenging activity by measuring trolox equivalent antioxidant capacity by measuring IC50 Trolox/IC50 test compound ratio after 30 mins by spectrophotometric analysis; type: functional
[35] = system: Mitochondria; test: as §1, with “oxidoreductase” for “oxidase”; type: functional, subcellular; settings: Capra hircus; Heart; Mitochrondria

**Q.** Which Activity [1] does the source give for `CCOC(=O)c1c(-c2ccc(O)c(OC)c2)cn2c1c(=O)oc1ccccc12` here?
**A.** Non-Toxic

**Q.** What about the inhibition [2] of the same molecule?
**A.** 21.9%

**Q.** And the fold change (FC) [3]?
**A.** 5.12

**Q.** What about the Activity [4] of the same molecule?
**A.** 49.3%

**Q.** And the fold change (FC) [5]?
**A.** 2.4

**Q.** What about the fold change (FC) [6] of the same molecule?
**A.** 3.52

**Q.** And the Activity [7]?
**A.** Non-Toxic

**Q.** And the Activity [8]?
**A.** 79.6%

**Q.** And the fold change (FC) [9]?
**A.** 3.06

**Q.** And the Activity [10]?
**A.** Active

**Q.** And the Activity [11]?
**A.** Non-Toxic

**Q.** What about the “inhibition (INH)” value [12] of the same molecule?
**A.** Not Active

**Q.** And the fold change (FC) [13]?
**A.** 4.42

**Q.** What about the Activity [14] of the same molecule?
**A.** Active

**Q.** What about the inhibition [15] of the same molecule?
**A.** 64.8%

**Q.** And the Activity [16]?
**A.** Active

**Q.** What about the fold change (FC) [17] of the same molecule?
**A.** 4.66

**Q.** What about the “inhibition (INH)” value [18] of the same molecule?
**A.** Not Active

**Q.** What about the Activity [19] of the same molecule?
**A.** Dose-dependent effect

**Q.** What about the Activity [20] of the same molecule?
**A.** Dose-dependent effect

**Q.** And the Activity [21]?
**A.** Active

**Q.** And the Activity [22]?
**A.** Dose-dependent effect

**Q.** What about the “inhibition (INH)” value [23] of the same molecule?
**A.** Not Active

**Q.** What about the Activity [24] of the same molecule?
**A.** Active

**Q.** What about the Activity [25] of the same molecule?
**A.** Non-Toxic

**Q.** And the K [26]?
**A.** 8.37 ×10⁴ /M

**Q.** What about the Activity [27] of the same molecule?
**A.** Active

**Q.** What about the Activity [28] of the same molecule?
**A.** Non-Toxic

**Q.** What about the Activity [29] of the same molecule?
**A.** inactive

**Q.** What about the Activity [30] of the same molecule?
**A.** Active

**Q.** And the Activity [31]?
**A.** Dose-dependent effect

**Q.** What about the inhibition [32] of the same molecule?
**A.** 19.9%

**Q.** And the inhibition [33]?
**A.** 44%

**Q.** What about the Ratio IC50 [34] of the same molecule?
**A.** 0.78

**Q.** And the Activity [35]?
**A.** Dose-dependent effect
